Assay results as given in patent US10875874B2, “Ginkgolide B derivative and preparation method and use thereof” (Chengdu Baiyu Ginkgolide Pharmaceuticals Co., Ltd., priority 2015, dated 2020).
In brackets after ≈: the same amount, converted by molar mass. Marks after values point to notes of the source that are not given here. Values belong to the compound of their own block, whether it stands above or below them.

How the values were obtained:
[1] = Weekly food intake of SHR rats; format: in vivo, rat
How it was run: (§1)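 Male and female SHR rats (200-250 g, 8/group) dosed intragastrically once daily for 8 weeks with test compounds at 60 or 120 mg/kg/d or captopril 27 mg/kg; Wistar and SHR controls received distilled water. Body weight and food intake observed during treatment.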

[2] = Weekly body weight of SHR rats; format: in vivo, rat
How it was run: as §1

[3] = system: spontaneously hypertensive rats (SHR); test: Caudal artery systolic pressure of spontaneously hypertensive rats, single administration; format: in vivo, rat; settings: x ± s, n = 8
How it was run: (§2)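 SHR rats of both sexes (200–250 g, 8/group) dosed intragastrically with 60 or 120 mg/kg/d, or captopril 27 mg/kg, once daily for 8 weeks; Wistar rats and vehicle SHR served as controls. Tail-cuff systolic pressure taken as the mean of 3 readings, measured before dosing and 30–120 min after the first dose, or 30 min post-dose on days 1–56 for chronic treatment.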

[4] = system: spontaneously hypertensive rats (SHR); test: Caudal artery systolic pressure of spontaneously hypertensive rats, 8 weeks of continuous medication; format: in vivo, rat; settings: x ± s, n = 8
How it was run: as §2

[5] = physchem; settings: water, thermodynamic from solid
Procedure: (§3) Measuring method: samples are ground to obtain fine powder, target compounds are quantitatively weighed, the weighed compounds are added into purified water, and the solubility of the compounds is investigated by ultrasonics.

[6] = Water solubility test; settings: purified water, thermodynamic from solid
Procedure: as §3

[7] = 60 mg/kg/d intragastric, week 0
[8] = 60 mg/kg/d intragastric, week 1
[9] = 60 mg/kg/d intragastric, week 2
[10] = 60 mg/kg/d intragastric, week 3
[11] = 60 mg/kg/d intragastric, week 4
[12] = 60 mg/kg/d intragastric, week 5
[13] = 60 mg/kg/d intragastric, week 6
[14] = 60 mg/kg/d intragastric, week 7
[15] = 60 mg/kg/d intragastric, week 8
[16] = 120 mg/kg/d intragastric, week 0
[17] = 120 mg/kg/d intragastric, week 1
[18] = 120 mg/kg/d intragastric, week 2
[19] = 120 mg/kg/d intragastric, week 3
[20] = 120 mg/kg/d intragastric, week 4
[21] = 120 mg/kg/d intragastric, week 5
[22] = 120 mg/kg/d intragastric, week 6
[23] = 120 mg/kg/d intragastric, week 7
[24] = 120 mg/kg/d intragastric, week 8
[25] = 60 mg/kg intragastric single administration, 30 min
[26] = 60 mg/kg intragastric single administration, 60 min
[27] = 60 mg/kg intragastric single administration, 90 min
[28] = 60 mg/kg intragastric single administration, 120 min
[29] = 60 mg/kg intragastric single administration, before administration
[30] = 120 mg/kg intragastric single administration, 30 min
[31] = 120 mg/kg intragastric single administration, 60 min
[32] = 120 mg/kg intragastric single administration, 90 min
[33] = 120 mg/kg intragastric single administration, 120 min
[34] = 120 mg/kg intragastric single administration, before administration
[35] = 60 mg/kg/d intragastric continuous, 1 d, 30 min after administration
[36] = 60 mg/kg/d intragastric continuous, 7 d, 30 min after administration
[37] = 60 mg/kg/d intragastric continuous, 13 d, 30 min after administration
[38] = 60 mg/kg/d intragastric continuous, 19 d, 30 min after administration
[39] = 60 mg/kg/d intragastric continuous, 25 d, 30 min after administration
[40] = 60 mg/kg/d intragastric continuous, 35 d, 30 min after administration
[41] = 60 mg/kg/d intragastric continuous, 49 d, 30 min after administration
[42] = 60 mg/kg/d intragastric continuous, 56 d, 30 min after administration
[43] = 60 mg/kg/d intragastric continuous, before administration
[44] = 120 mg/kg/d intragastric continuous, 1 d, 30 min after administration
[45] = 120 mg/kg/d intragastric continuous, 7 d, 30 min after administration
[46] = 120 mg/kg/d intragastric continuous, 13 d, 30 min after administration
[47] = 120 mg/kg/d intragastric continuous, 19 d, 30 min after administration
[48] = 120 mg/kg/d intragastric continuous, 25 d, 30 min after administration
[49] = 120 mg/kg/d intragastric continuous, 35 d, 30 min after administration
[50] = 120 mg/kg/d intragastric continuous, 49 d, 30 min after administration
[51] = 120 mg/kg/d intragastric continuous, 56 d, 30 min after administration
[52] = 120 mg/kg/d intragastric continuous, before administration

SMILES: Cc1nc(C)c(CO[C@H]2C(=O)O[C@H]3O[C@]45C(=O)OC6C[C@@H](C(C)(C)C)C32[C@@]64[C@@H](O)[C@@H]2OC(=O)[C@@H](C)[C@@]25O)nc1C (stereo partly shown) [BM]
- Average dairy food intake [1, 7]: 18.2 g/day
- Average dairy food intake [1, 8]: 19.1^▴ g/d
- Average dairy food intake [1, 9]: 19.9^▴ g/d
- Average dairy food intake [1, 10]: 20.9^▴▴ g/d
- Average dairy food intake [1, 11]: 21.3^▴▴ g/d
- Average dairy food intake [1, 12]: 22.4^▴▴ g/d
- Average dairy food intake [1, 13]: 23.1^▴▴ g/d
- Average dairy food intake [1, 14]: 24.7^▴▴ g/d
- Average dairy food intake [1, 15]: 25.5^▴▴ g/d
- Average dairy food intake [1, 16]: 18.5 g/day
- Average dairy food intake [1, 17]: 19.9^▴ g/d
- Average dairy food intake [1, 18]: 20.7^▴▴ g/d
- Average dairy food intake [1, 19]: 22.6^▴▴ g/d
- Average dairy food intake [1, 20]: 22.9^▴▴ g/d
- Average dairy food intake [1, 21]: 23.7^▴▴ g/d
- Average dairy food intake [1, 22]: 24.4^▴▴ g/d
- Average dairy food intake [1, 23]: 25.8^▴▴ g/d
- Average dairy food intake [1, 24]: 27.6^▴▴ g/d
- Body weight [2, 7]: 231.5 g
- Body weight [2, 8]: 236.8 g
- Body weight [2, 9]: 245.7^▴▴ g
- Body weight [2, 10]: 253.4 g
- Body weight [2, 11]: 258.3 g
- Body weight [2, 12]: 263.5^▴ g
- Body weight [2, 13]: 271.3^▴▴ g
- Body weight [2, 14]: 281.6^▴▴ g
- Body weight [2, 15]: 292.5^▴▴ g
- Body weight [2, 16]: 233.4 g
- Body weight [2, 17]: 249.5^▴▴ g
- Body weight [2, 18]: 256.8^▴▴ g
- Body weight [2, 19]: 264.3^▴▴ g
- Body weight [2, 20]: 271.6^▴▴ g
- Body weight [2, 21]: 280.4^▴▴ g
- Body weight [2, 22]: 290.5^▴▴ g
- Body weight [2, 23]: 305.7^▴▴ g
- Body weight [2, 24]: 315.8^▴▴ g
- Systolic pressure [3, 25]: 156.21 ± 9.68 mmHg
- Systolic pressure [3, 26]: 152.06 ± 9.78 mmHg
- Systolic pressure [3, 27]: 151.74 ± 13.15 mmHg
- Systolic pressure [3, 28]: 152.52 ± 15.06 mmHg
- Systolic pressure [3, 29]: 166.27 ± 14.01 mmHg
- Systolic pressure [3, 30]: 149.04 ± 10.95 mmHg
- Systolic pressure [3, 31]: 151.58 ± 9.85 mmHg
- Systolic pressure [3, 32]: 153.65 ± 11.04 mmHg
- Systolic pressure [3, 33]: 151.00 ± 9.85 mmHg
- Systolic pressure [3, 34]: 163.45 ± 15.24 mmHg
- Systolic pressure [4, 35]: 155.25 ± 12.36 mmHg
- Systolic pressure [4, 36]: 154.85 ± 10.49 mmHg
- Systolic pressure [4, 37]: 153.26 ± 12.95 mmHg
- Systolic pressure [4, 38]: 156.74 ± 10.36 mmHg
- Systolic pressure [4, 39]: 154.75 ± 10.39 mmHg
- Systolic pressure [4, 40]: 151.48 ± 10.32 mmHg
- Systolic pressure [4, 41]: 151.17 ± 14.05 mmHg
- Systolic pressure [4, 42]: 154.64 ± 11.42 mmHg
- Systolic pressure [4, 43]: 166.27 ± 14.01 mmHg
- Systolic pressure [4, 44]: 154.62 ± 5.74 mmHg
- Systolic pressure [4, 45]: 152.31 ± 10.56 mmHg
- Systolic pressure [4, 46]: 151.58 ± 12.06 mmHg
- Systolic pressure [4, 47]: 153.06 ± 10.41 mmHg
- Systolic pressure [4, 48]: 148.54 ± 11.62 mmHg
- Systolic pressure [4, 49]: 149.36 ± 10.75 mmHg
- Systolic pressure [4, 50]: 150.32 ± 9.59 mmHg
- Systolic pressure [4, 51]: 149.78 ± 11.64 mmHg
- Systolic pressure [4, 52]: 163.45 ± 15.24 mmHg
- solubility [5]: 250 µg/mL (≈ 448 µM)

- solubility [6]: 300 µg/mL (≈ 524 µM)
SMILES: Cc1nc(C)c(C(=O)O[C@H]2C(=O)O[C@H]3O[C@]45C(=O)OC6C[C@@H](C(C)(C)C)C32[C@@]64[C@@H](O)[C@@H]2OC(=O)[C@@H](C)[C@@]25O)nc1C (stereo partly shown) [BZ]
- Average dairy food intake [1, 7]: 18.1 g/day
- Average dairy food intake [1, 8]: 19.5^▴ g/d
- Average dairy food intake [1, 9]: 19.7^▴ g/d
- Average dairy food intake [1, 10]: 20.4^▴▴ g/d
- Average dairy food intake [1, 11]: 20.9^▴▴ g/d
- Average dairy food intake [1, 12]: 21.7^▴▴ g/d
- Average dairy food intake [1, 13]: 22.9^▴▴ g/d
- Average dairy food intake [1, 14]: 24.0^▴▴ g/d
- Average dairy food intake [1, 15]: 24.9^▴▴ g/d
- Average dairy food intake [1, 16]: 18.0 g/day
- Average dairy food intake [1, 17]: 19.3^▴ g/d
- Average dairy food intake [1, 18]: 20.5^▴▴ g/d
- Average dairy food intake [1, 19]: 22.0^▴▴ g/d
- Average dairy food intake [1, 20]: 22.6^▴▴ g/d
- Average dairy food intake [1, 21]: 23.6^▴▴ g/d
- Average dairy food intake [1, 22]: 24.1^▴▴ g/d
- Average dairy food intake [1, 23]: 24.9^▴▴ g/d
- Average dairy food intake [1, 24]: 27.0^▴▴ g/d
- Body weight [2, 7]: 231.0 g
- Body weight [2, 8]: 235.7 g
- Body weight [2, 9]: 242.5 g
- Body weight [2, 10]: 251.6 g
- Body weight [2, 11]: 259.4^▴ g
- Body weight [2, 12]: 263.6^▴ g
- Body weight [2, 13]: 269.1^▴▴ g
- Body weight [2, 14]: 276.8^▴▴ g
- Body weight [2, 15]: 288.0^▴▴ g
- Body weight [2, 16]: 268.9 g
- Body weight [2, 17]: 249.4^▴▴ g
- Body weight [2, 18]: 256.7^▴▴ g
- Body weight [2, 19]: 262.4^▴▴ g
- Body weight [2, 20]: 268.9^▴▴ g
- Body weight [2, 21]: 280.7^▴▴ g
- Body weight [2, 22]: 291.3^▴▴ g
- Body weight [2, 23]: 305.4^▴▴ g
- Body weight [2, 24]: 320.9^▴▴ g
- Systolic pressure [3, 25]: 152.65 ± 10.48 mmHg
- Systolic pressure [3, 26]: 153.05 ± 16.39 mmHg
- Systolic pressure [3, 27]: 151.14 ± 10.87 mmHg
- Systolic pressure [3, 28]: 156.47 ± 12.47 mmHg
- Systolic pressure [3, 29]: 163.58 ± 10.36 mmHg
- Systolic pressure [3, 30]: 150.00 ± 9.15 mmHg
- Systolic pressure [3, 31]: 152.95 ± 9.26 mmHg
- Systolic pressure [3, 32]: 156.28 ± 13.95 mmHg
- Systolic pressure [3, 33]: 169.36 ± 10.63 mmHg
- Systolic pressure [3, 34]: 166.24 ± 12.14 mmHg
- Systolic pressure [4, 35]: 158.77 ± 11.06 mmHg
- Systolic pressure [4, 36]: 153.41 ± 14.08 mmHg
- Systolic pressure [4, 37]: 151.38 ± 9.47 mmHg
- Systolic pressure [4, 38]: 155.74 ± 10.62 mmHg
- Systolic pressure [4, 39]: 154.94 ± 9.64 mmHg
- Systolic pressure [4, 40]: 150.95 ± 5.04 mmHg
- Systolic pressure [4, 41]: 155.06 ± 6.37 mmHg
- Systolic pressure [4, 42]: 153.95 ± 14.01 mmHg
- Systolic pressure [4, 43]: 163.58 ± 10.36 mmHg
- Systolic pressure [4, 44]: 154.69 ± 9.85 mmHg
- Systolic pressure [4, 45]: 153.74 ± 10.24 mmHg
- Systolic pressure [4, 46]: 150.39 ± 10.39 mmHg
- Systolic pressure [4, 47]: 149.72 ± 9.83 mmHg
- Systolic pressure [4, 48]: 149.02 ± 8.26 mmHg
- Systolic pressure [4, 49]: 151.72 ± 10.47 mmHg
- Systolic pressure [4, 50]: 153.42 ± 12.04 mmHg
- Systolic pressure [4, 51]: 148.62 ± 9.73 mmHg
- Systolic pressure [4, 52]: 166.24 ± 12.14 mmHg
